Source: the NIST ThermoML archive (doi:10.1016/j.fluid.2012.09.026)
Several values for one entry are separate records, joined by “and”; a condition that tells them apart may be missing. Equal values may be shown once. ± gives the expanded uncertainty stated by the source.

Conditions: for vapor or sublimation pressure: Closed cell (Static) method

CCCCO [butan-1-ol]
vapor or sublimation pressure (496.62 K, Liquid): 1529 ± 3 kPa
vapor or sublimation pressure (497.54 K, Liquid): 1549 ± 4 kPa
vapor or sublimation pressure (497.6 K, Liquid): 1555 ± 3 kPa
vapor or sublimation pressure (497.65 K, Liquid): 1555 ± 3 kPa
vapor or sublimation pressure (497.7 K, Liquid): 1559 ± 3 kPa
vapor or sublimation pressure (497.97 K, Liquid): 1559 ± 4 kPa
vapor or sublimation pressure (506.74 K, Liquid): 1834 ± 4 kPa
vapor or sublimation pressure (506.84 K, Liquid): 1834 ± 4 kPa
vapor or sublimation pressure (507.01 K, Liquid): 1854 ± 4 kPa and 1844 ± 4 kPa
vapor or sublimation pressure (507.23 K, Liquid): 1844 ± 4 kPa
vapor or sublimation pressure (507.25 K, Liquid): 1844 ± 4 kPa
vapor or sublimation pressure (507.3 K, Liquid): 1854 ± 5 kPa
vapor or sublimation pressure (518.64 K, Liquid): 2241 ± 4 kPa
vapor or sublimation pressure (518.91 K, Liquid): 2246 ± 4 kPa
vapor or sublimation pressure (518.99 K, Liquid): 2248 ± 4 kPa
vapor or sublimation pressure (519.06 K, Liquid): 2248 ± 4 kPa
vapor or sublimation pressure (519.2 K, Liquid): 2252 ± 4 kPa
specific volume (520 K, Gas, isochoric method): 0.01653 ± 4.1e-05 m3/kg
specific volume (520 K, Liquid, isochoric method): 0.001879 ± 5e-06 m3/kg
mass density (528.31 K, 2642 kPa, Gas, isochoric method): 113.76 ± 1.1 kg/m3
vapor or sublimation pressure (528.31 K, Liquid): 2622 ± 5 kPa
specific volume (530 K, Gas, isochoric method): 0.01351 ± 3.4e-05 m3/kg
specific volume (530 K, Liquid, isochoric method): 0.001974 ± 5e-06 m3/kg
mass density (531.38 K, 2775 kPa, Gas, isochoric method): 167.7 ± 2.1 kg/m3
vapor or sublimation pressure (531.38 K, Liquid): 2776 ± 5 kPa
vapor or sublimation pressure (532.65 K, Liquid): 2804 ± 5 kPa
mass density (533.03 K, 2834 kPa, Gas, isochoric method): 203.9 ± 1.8 kg/m3
vapor or sublimation pressure (533.03 K, Liquid): 2834 ± 6 kPa
vapor or sublimation pressure (533.2 K, Liquid): 2834 ± 5 kPa
vapor or sublimation pressure (533.4 K, Liquid): 2838 ± 5 kPa
specific volume (533.45 K, Gas, isochoric method): 0.01243 ± 3.1e-05 m3/kg
specific volume (533.45 K, Liquid, isochoric method): 0.002001 ± 5e-06 m3/kg
vapor or sublimation pressure (537.47 K, Liquid): 3029 ± 6 kPa
mass density (539.69 K, 3127 kPa, Gas, isochoric method): 113.76 ± 6.1 kg/m3
vapor or sublimation pressure (539.69 K, Liquid): 3127 ± 6 kPa
specific volume (540 K, Gas, isochoric method): 0.01078 ± 2.7e-05 m3/kg
specific volume (540 K, Liquid, isochoric method): 0.002103 ± 5e-06 m3/kg
mass density (540.57 K, Liquid, Isochoric Breaking Point): 470 ± 1.1 kg/m3
vapor or sublimation pressure (541.16 K, Liquid): 3205 ± 6 kPa
vapor or sublimation pressure (541.95 K, Liquid): 3245 ± 6 kPa
vapor or sublimation pressure (542.81 K, Liquid): 3295 ± 6 kPa
vapor or sublimation pressure (543.19 K, Liquid): 3293 ± 6 kPa
mass density (543.3 K, 3315 kPa, Gas, isochoric method): 113.76 ± 6.4 kg/m3
vapor or sublimation pressure (543.3 K, Liquid): 3315 ± 9 kPa
mass density (543.89 K, 3315 kPa, Gas, isochoric method): 167.7 ± 5.6 kg/m3
vapor or sublimation pressure (543.89 K, Liquid): 3315 ± 8 kPa
mass density (546.79 K, 3456 kPa, Gas, isochoric method): 113.76 ± 4.7 kg/m3
vapor or sublimation pressure (546.79 K, Liquid): 3456 ± 7 kPa
mass density (547.36 K, Gas, Isochoric Breaking Point): 113.76 ± 0.31 kg/m3
mass density (548.15 K, 3531 kPa, Gas, isochoric method): 113.76 ± 8 kg/m3
mass density (548.49 K, 3579 kPa, Gas, isochoric method): 203.9 ± 8.2 kg/m3
vapor or sublimation pressure (548.49 K, Liquid): 3579 ± 7 kPa
specific volume (550 K, Gas, isochoric method): 0.008333 ± 2.2e-05 m3/kg
specific volume (550 K, Liquid, isochoric method): 0.002288 ± 6e-06 m3/kg
mass density (550.05 K, 4256 kPa, Liquid, isochoric method): 470 ± 1.3 kg/m3
mass density (550.45 K, 3647 kPa, Gas, isochoric method): 167.7 ± 3.1 kg/m3
vapor or sublimation pressure (550.45 K, Liquid): 3647 ± 7 kPa
mass density (551.66 K, 3610 kPa, Gas, isochoric method): 113.76 ± 2.8 kg/m3
mass density (555.53 K, 3893 kPa, Gas, isochoric method): 167.7 ± 2.9 kg/m3
vapor or sublimation pressure (555.53 K, Liquid): 3983 ± 11 kPa
vapor or sublimation pressure (555.6 K, Liquid): 3945 ± 10 kPa
mass density (555.7 K, 3941 kPa, Gas, isochoric method): 203.9 ± 3.3 kg/m3
vapor or sublimation pressure (555.7 K, Liquid): 3941 ± 8 kPa
vapor or sublimation pressure (556.16 K, Liquid): 3963 ± 8 kPa
mass density (557.65 K, 4020 kPa, Gas, isochoric method): 167.7 ± 1 kg/m3
vapor or sublimation pressure (557.65 K, Liquid): 4075 ± 8 kPa
mass density (558.64 K, 3788 kPa, Gas, isochoric method): 113.76 ± 0.83 kg/m3
mass density (558.65 K, Gas, Isochoric Breaking Point): 167.7 ± 0.44 kg/m3
vapor or sublimation pressure (559.05 K, Liquid): 4168 ± 8 kPa
mass density (559.33 K, 4118 kPa, Gas, isochoric method): 203.9 ± 1.3 kg/m3
vapor or sublimation pressure (559.33 K, Liquid): 4181 ± 8 kPa
specific volume (560 K, Gas, isochoric method): 0.005682 ± 1.8e-05 m3/kg
specific volume (560 K, Liquid, isochoric method): 0.002717 ± 7e-06 m3/kg
specific volume (561 K, Gas, isochoric method): 0.005319 ± 1.8e-05 m3/kg
specific volume (561 K, Liquid, isochoric method): 0.002792 ± 8e-06 m3/kg
mass density (561.08 K, Liquid, Isochoric Breaking Point): 345.9 ± 1.4 kg/m3
mass density (561.09 K, 6138 kPa, Liquid, isochoric method): 470 ± 1.3 kg/m3
mass density (561.85 K, Gas, Isochoric Breaking Point): 203.9 ± 0.6 kg/m3
specific volume (562 K, Gas, isochoric method): 0.004879 ± 1.6e-05 m3/kg
specific volume (562 K, Liquid, isochoric method): 0.002985 ± 9e-06 m3/kg
mass density (562.14 K, 4275 kPa, Gas, isochoric method): 167.7 ± 2.4 kg/m3
specific volume (563 K, Gas, isochoric method): 0.0046 ± 1.4e-05 m3/kg
specific volume (563 K, Liquid, isochoric method): 0.003108 ± 8e-06 m3/kg
